Test system: PAO1
Assay: Salt sensitivity assay
Type: cell-based, P. aeruginosa

MIC (CaCl2 (2.5 mM)): 2 µM
MIC (FeCl3 (4 μM)): 1 µM
MIC (KCl (4.5 mM)): 1 µM
MIC (MgCl2 (1 mM)): 1 µM
MIC (NH4Cl (6 μM)): 1 µM
MIC (NaCl (150 mM)): 0.5 µM
MIC (ZnCl2 (8 mM)): 1 µM
Substance: Polymyxin B
MBC (CaCl2 (2.5 mM)): 2 µM
MBC (FeCl3 (4 μM)): 1 µM
MBC (KCl (4.5 mM)): 1 µM
MBC (MgCl2 (1 mM)): 1 µM
MBC (NH4Cl (6 μM)): 1 µM
MBC (NaCl (150 mM)): 0.5 µM
MBC (ZnCl2 (8 mM)): 1 µM
